Source: patent US20100113466A1, “OXAZOLE-PYRIDAZINE-OXAZOLE ALPHA-HELIX MIMETIC” (The Scripps Research Institute, priority 2008, published 2010)

Biological target: Bcl-xL (Homo sapiens, UniProt Q07817)
Assay: Bak/Bcl-XL competitive fluorescence polarization binding assay with fluorescein labeled Bid peptide
Conditions: displacement of fluorescein labeled Bid peptide from Bcl-xL; mP values only in drawings
Description: The affinity of each molecule within the library of potential Bak mimetics can be assayed with respect to binding to Bcl-xL receptor. The binding affinity can be determined, for example, by a competitive binding assay based on fluorescence polarization. See Wang, et al., Proc. Natl. Acad. Sci., 2000, 97:7124-7129.
Competitive fluorescence polarization-based assays require a dye-labeled peptide to determine if the small molecule has affinity for the target protein. These assays can be carried out with a fluorescein labeled Bid peptide. […] When a solution of fluorescein labeled Bid peptide is irradiated with polarized light, the peptide rotates quickly and the emitted light is depolarized. Upon complexation with the target Bcl-xL protein, the larger complex rotates slowly and the emitted light remains polarized.
When the fluorescein-labeled Bid/Bcl-xL complex is exposed to small molecules with binding affinity for Bcl-xL, the Bid peptide is displaced and the amount of depolarized light emitted increases. This polarization amount (mP) provides an estimate of the affinity for the small molecules for Bcl-xL
See Kutzki, et al., J. Am. Chem. Soc., 2002, 124:11838-11839. This compound acts as a positive control.
These compounds represent the strongest binders for Bcl-xL of the Bak mimetic library, with structure and mP values shown below.

Chain of Bcl-xL (Q07817 whole entry, species assumed): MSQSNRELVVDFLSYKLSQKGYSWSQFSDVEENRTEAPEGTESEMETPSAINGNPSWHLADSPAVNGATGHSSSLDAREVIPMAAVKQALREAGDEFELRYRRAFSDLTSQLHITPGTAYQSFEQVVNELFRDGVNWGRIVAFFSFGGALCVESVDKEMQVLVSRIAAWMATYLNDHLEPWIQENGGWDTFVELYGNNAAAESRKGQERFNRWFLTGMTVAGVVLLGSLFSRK

Row | activity (mP value) in binding to Bcl-xL | SMILES
1 | particularly active | CC(C)Cc1cc(C(=O)N2CCC[C@@H](OCc3ccccc3)C2)nnc1-c1nc(C(C)C)co1 [Compound 4.73, (R)-(3-(Benzyloxy)piperidin-1-yl)(5-isobutyl-6-(4-isopropyloxazol-2-yl)pyridazin-3-yl)methanone]
2 | particularly active | CC(C)Cc1cc(-c2nc(C(C)C)co2)nnc1-c1nc(C(C)C)co1 [Compound 4.53, 2,2′-(4-isobutylpyridazine-3,6-diyl)bis(4-isopropyloxazole)]
